Melting point data for 3 compounds are collected here from US7531548B2, “HIV inhibiting 5-carbo- or heterocyclic substituted pyrimidines” (priority 2004, dated 2009).

SMILES strings stand for the structures. Some results are limits rather than exact numbers.

A word on the melting point: it is the temperature, or range, at which the solid turns liquid. In the case of `Cc1cc(/C=C/C#N)cc(C)c1Nc1nc(Nc2ccc(C#N)cc2)ncc1NCc1cccnc1`, the melting point is 140 °C.

Turning to `Cc1cc(/C=C/C#N)cc(C)c1Nc1nc(Nc2ccc(C#N)cc2)ncc1CNCc1cccnc1`, the melting point was found to be 236 °C.

`CCc1cscn1`: the melting point is > 250 °C.
